Experimental data reported in US11339144B2 (Navitor Pharmaceuticals, Inc., priority 2017, dated 2022).

What was measured:
[1] = target: HA-GST-Rheb (GTP-γ-S loaded) activating mTORC1 (Homo sapiens (Human), UniProt Q15382); assay: Rheb-dependent in vitro kinase assay (Rheb-IVK; LanthaScreen or Western readout); format: biochemical; conditions: Rheb-dependent in vitro kinase assay; read-out: IVK IC50
Rheb = Rheb (Homo sapiens (Human), UniProt Q15382); assay: Affinity Selection Mass Spectrometry (ASMS); format: binding; conditions: affinity (R3/R0) in Affinity Selection Mass Spectrometry assay
Chain of Rheb (Q15382 1-169 limits assumed): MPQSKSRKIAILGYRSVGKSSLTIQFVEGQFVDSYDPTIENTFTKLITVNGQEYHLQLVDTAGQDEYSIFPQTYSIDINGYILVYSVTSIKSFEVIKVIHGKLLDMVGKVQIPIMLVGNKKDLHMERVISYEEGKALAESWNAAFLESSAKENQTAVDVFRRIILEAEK
How it was run: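 Affinity selection used 2 μM compound with 60 μM Rheb and 180 μM GDP for 30 min at room temperature. After 10 kDa ultrafiltration washes, protein was denatured in MeCN and bound compound quantified by C18 UPLC with Q-TOF MS, against a no-protein control.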

Chain of HA-GST-Rheb (GTP-γ-S loaded) activating mTORC1 (Q15382 1-181): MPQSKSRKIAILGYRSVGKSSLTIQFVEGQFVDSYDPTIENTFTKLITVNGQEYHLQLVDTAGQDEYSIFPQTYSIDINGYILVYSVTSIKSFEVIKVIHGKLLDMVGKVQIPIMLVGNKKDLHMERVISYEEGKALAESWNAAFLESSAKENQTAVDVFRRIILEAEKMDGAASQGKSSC

IC50 [1] | SMILES | ASMS (R3/R0) (Rheb)
10 to 100 µM | O=C(c1cc2c(Sc3ccc(Cl)cc3Cl)cc(Cl)cc2[nH]1)N1CCNCC1 [I-105, (6-chloro-4-(2,4-dichlorophenylthio)-1H-indol-2-yl)(piperazin-1-yl)methanone] | B (an affinity (R3/R0) between 100% and 20%)
> 100 µM | O=S(=O)(c1cccnc1)n1ccc2c(Sc3ccc(Cl)cc3)cc(Cl)cc21 [I-107] | C (an affinity (R3/R0)<20%)
100 to 300 µM | O=C1CCc2ccc(Oc3cc(Cl)cc4[nH]c(C(=O)O)cc34)cc2N1 [I-108, 6-chloro-4-(2-oxo-1,2,3,4-tetrahydroquinolin-7-yloxy)-1H-indole-2-carboxylic acid] | B (an affinity (R3/R0) between 100% and 20%)
> 100 µM | CN1CCC(CCNC(=O)c2cc3c(Br)cc(Sc4ccc(Cl)c(Cl)c4)cc3n2Cc2ccc(C(=O)OC(C)(C)C)cc2)CC1 [I-110] | C (an affinity (R3/R0)<20%)
< 10 µM | CN1CCN(c2ccc(NC(=O)c3cc4c(Sc5ccc(Cl)cc5Cl)cc(Cl)cc4[nH]3)cc2Cl)CC1 [I-111, 6-chloro-N-(3-chloro-4-(4-methylpiperazin-1-yl)phenyl)-4-(2,4-dichlorophenylthio)-1H-indole-2-carboxamide] | C (an affinity (R3/R0)<20%)
< 10 µM | CN1CCN(c2ccc(NC(=O)c3cc4c(Sc5ccc(Cl)cc5Cl)cc(Cl)cc4[nH]3)cc2C#N)CC1 [I-112, 6-chloro-N-(3-cyano-4-(4-methylpiperazin-1-yl)phenyl)-4-(2,4-dichlorophenylthio)-1H-indole-2-carboxamide] | C (an affinity (R3/R0)<20%)
< 10 µM | CN1CCN(c2ccc(NC(=O)c3cc4c(Sc5ccc(Cl)cc5Cl)cc(Cl)cc4[nH]3)cc2F)CC1 [I-113, 6-chloro-4-(2,4-dichlorophenylthio)-N-(3-fluoro-4-(4-methylpiperazin-1-yl)phenyl)-1H-indole-2-carboxamide] | C (an affinity (R3/R0)<20%)
> 100 µM | CN1CCC(NC(=O)c2cc3c(Sc4ccc(Cl)cc4Cl)cc(Cl)cc3[nH]2)CC1 [I-114] | B (an affinity (R3/R0) between 100% and 20%)
10 to 100 µM | CN(C)CCNC(=O)c1cc2c(Sc3ccc(Cl)cc3Cl)cc(Cl)cc2[nH]1 [I-115, 6-chloro-4-(2,4-dichlorophenylthio)-N-(2-(dimethylamino)ethyl)-1H-indole-2-carboxamide] | B (an affinity (R3/R0) between 100% and 20%)
< 10 µM | OCc1cc2c(Sc3ccc(Oc4ccccc4)cc3)cc(Cl)cc2[nH]1 [I-116, (6-chloro-4-(4-phenoxyphenylthio)-1H-indol-2-yl)methanol] | B (an affinity (R3/R0) between 100% and 20%)
> 3 µM | O=C(NC1CCN(Cc2ccccc2)CC1)c1cc2c(Sc3ccc(Cl)cc3Cl)cc(Cl)cc2[nH]1 [I-117] | C (an affinity (R3/R0)<20%)
< 10 µM | O=C(O)c1cc2c(Sc3ccc(Oc4ccccc4)cc3)cc(Cl)cc2[nH]1 [I-118, 6-chloro-4-(4-phenoxyphenylthio)-1H-indole-2-carboxylic acid] | B (an affinity (R3/R0) between 100% and 20%)
> 100 µM | O=C(NCCN1CCN(c2ccccc2)CC1)c1cc2c(Sc3ccc(Cl)cc3Cl)cc(Cl)cc2[nH]1 [I-119] | B (an affinity (R3/R0) between 100% and 20%)
< 10 µM | CN1CCN(c2cccc(NC(=O)c3cc4c(Sc5ccc(Cl)cc5Cl)cc(Cl)cc4[nH]3)c2)CC1 [I-121, 6-chloro-4-(2,4-dichlorophenylthio)-N-(3-(4-methylpiperazin-1-yl)phenyl)-1H-indole-2-carboxamide] | B (an affinity (R3/R0) between 100% and 20%)

SMILES | IC50 [1] | ASMS (R3/R0) (Rheb)
CC(C)(C)OC(=O)c1ccc(Cn2c(C(=O)O)cc3c(Br)cc(Sc4ccc(Cl)c(Cl)c4)cc32)cc1 [I-109, 4-Bromo-1-(4-(tert-butoxycarbonyl)benzyl)-6-(3,4-dichlorophenylthio)-1H-indole-2-carboxylic acid] | 10 to 100 µM | B (an affinity (R3/R0) between 100% and 20%)
